pEC50: −log10 of the molar value. “Also recorded” adds a separate entry of the source. Blank lines part the entries; values can stand above or below the compound they belong to. Where no end group is shown, it is not given here. rhodamine = not defined here; Rhod = not defined here
Tests used:
[1] = tested on: HeLa cells transfected with pGR-mCherry and Rab5-GFP or Rab5Q79L-GFP; experiment: GR-mCherry translocation in cells expressing Rab5-GFP or Rab5Q79L-GFP; type: cell-based; settings: 1 μM, 30 min
Experimental: Cotransfected cells expressing Rab-GFP fusions and pGR-mCherry were identified via their characteristic pattern of green and red fluorescence. The translocation ratio was determined using median values of mCherry fluorescence within the nucleus and surrounding region using CellProfiler.
HeLa cells transfected for 24-36 hr with pGR-mCherry and either Rab5-GFP or Rab5Q79L-GFP were plated (10^4/well in […]) the day prior to experiments in 96 well glass bottom plates (Matrical). The cells were washed with HKR buffer and the nuclei labeled using Hoescht as above. […] The cells were incubated for a further 30 min at 37° C. before imaging. Cells that had been cotransfected with EGFP fusions were identified via their characteristic pattern of green and red fluorescence. To evaluate the extent of GR activation, epifluorescence images were obtained as described above, except the fluorescence of pGR-mCherry was also visualized using Zeiss Filter Set #43 (ex BP 545/25 nm, FT 570, em BP 605/70 nm).
(§1) The image analysis algorithm used by CellProfiler is customizable and contained within a ‘Pipeline’ that describes a series of image manipulation and evaluation steps, such as reading the image, adjusting the intensity, and identifying objects. Each step has several options. […] Using the image of Hoescht fluorescence and Otsu's method of automatic thresholding, nuclei were identified and segmented using 3 class thresholding. The middle class was assigned to background. Closely approximated objects were separated using ‘Laplacian of Gaussian’ modeling, and touching nuclei were divided using the ‘shape’ option. Nuclear regions were expanded by 2 μm to generate an enlarged region. The nuclear region was subtracted from enlarged region to generate a ring surrounding the nucleus (surround). The diameter of the surrounding region was chosen to be 2 μm larger than the nucleus, within the range (1-3 μm) used by previously reported high content screens (Ding et al., 1998, J Biol Chem. 273:28897-28905; Peeraniet al., 2007, EMBO J. 26:4744-4755). The ratio of the median intensities of the nuclear and surrounding region of the GFP or mCherry (as appropriate) image were collected for every cell examined. Those cells falling below a threshold of intensity (10% of the maximum intensity of the image) were discarded as ‘untransfected’. Typically, 20-60 transfected cells from 15-30 images were examined for each experimental condition.

[2] = tested on: HeLa cells transfected with GR-GFP; experiment: GR-GFP translocation assay (cytosolic access of Dex-labeled molecules); type: cell-based; settings: for translocation ratio (TR): HeLa cells expressing GR-GFP
Experimental: HeLa cells transfected with pK7-GR-GFP were plated in Matrical plates as described above. To label nuclei, the media was replaced with HKR buffer containing 300 nM Hoescht and the cells incubated for 30 min at 37° C.
Cells were then analyzed as described above.
HeLa cells transfected with pK7-GR-GFP for 24-36 hr were plated (10^4/well in 200 μL) the day prior to experiments in 96 well glass bottom plates (Matrical). The media was replaced with HKR buffer containing 300 nM Hoescht and the cells incubated for 30 min at 37° C. […] The cells were incubated for a further 30 min at 37° C. before epifluorescence imaging using a Zeiss Axiovert 200M microscope fitted with a mRM digital camera, a 63×1.3NA PlanApo objective and an EXFO-Excite illumination source.
Uptake was allowed to proceed for an additional 30 min at 37° C. before analysis by epifluorescence images as described elsewhere herein.
as §1, with “The diameter of the surrounding region was chosen to be 2 μm larger than the nucleus, within the range (1-3 μm) used by previously reported high content screens (Ding et al., 1998, J Biol Chem. 273:28897-28905; Peeraniet al., 2007, EMBO J. 26:4744-4755).” left out

Figure 15 = experiment: Figure 15
Text: Table printed on a drawing sheet, Figure 15
The amino acid sequence of Arg8 is provided in SEQ ID NO:68.
First reader's note: Cytosolic concentration and percent in cytosol are taken as measures of cell permeability or uptake; the supplied text has no description of Figure 15.

U2OS(GIGI) cells = experiment: GIGI in lysates, stably transfected U2OS(GIGI) cells; type: cell-based; settings: Dex-labeled peptides, 24 h, lysates, read-out: EC50 (eGFP expression, GIGI)
Text: RFUs are expressed±standard deviation (Excel). The maximum induction level is defined as RFUmax. Data were processed using Kaleidagraph and GraphPad Prism software. RFU=([I530]/[I580])−([I′530]/[I′580]) (1)
Y=Ymin+(Ymax−Ymin)/(1+10^logEC50-X) (2)

HeLa cells [3] = experiment: Colocalization with Alexa-488-transferrin (Tf488), live cell confocal microscopy; type: cell-based; settings: 1 μM, 30 min
Experimental: To examine the colocalization of rhodamine labeled miniature proteins or peptides with Alexa-488-transferrin (Tf488), HeLa cells were plated (200 μl, 10^4 cells/well, 96 well glass bottom plates, Matrical) the day prior to experiments. The media was replaced with 150 μL Hepes-Krebs-Ringer's (HKR) buffer (140 mM NaCl, 2 mM KCl, 1 mM CaCl2, 1 mM MgCl2, 10 mM Hepes pH 7.4) containing 1 μM miniature protein or 25 nM Alexa-488-transferrin (Molecular Probes) and the cells incubated at 37° C. for 30 min. The cells were then rinsed twice with 200 μL, HKR buffer and nuclei were labeled by overlaying 200 μL HKR containing 300 nM Hoechst 33342 (Molecular Probes Cat. # H3570) for 5 minutes. Images of cells were acquired using a PerkinElmer LiveView spinning disk confocal microscope fitted with a 60×1.2 NA objective. Colocalization with Rab-GFP fusions was examined in an analogous way using HeLa cells transfected with the appropriate expression plasmid.
Colocalization between rhodamine and fluorescein labeled miniature proteins and peptides, or between rhodamine labeled miniature proteins and markers of endocytosis was completed using confocal microscopy. Live cell confocal microscopy was conducted using a PerkinElmer LiveView spinning disk confocal microscope fitted with heated microscope enclosure (maintained at 37° C.), a 60×1.2 NA objective, laser illumination, a Nipkow CSU-1× spinning disk, and a Hammamatsu CS9100 EMCCD camera operated using Velocity software. Alexafluor-488-transferrin was detected using a 488 nm laser and a 520 nm long pass filter; tetraethylrhodamine and Alexafluor-546-transferrin were detected using a 546 nm laser line and a 580 nm long pass filter, Hoescht 33342 was detected using a 405 nm laser line and a 450 nm long pass filter. Images were processed for presentation by using the ‘subtract background’ option and linear contrast adjustments in Image J. All adjustments were applied uniformly to the entire image. Colocalization analysis was performed using the JACOP plugin (Bolte and Cordelières, 2006), available on the ImageJ website. The fraction of rhodamine signal overlapping with EGFP signal (R E G) was calculated using Mander's coefficient and automatic thresholding. Pearson's correlation coefficient (R) was also obtained using the JACOP plugin.

cathepsin B = cathepsin B (Homo sapiens, UniProt P07858); experiment: Resistance to acid proteases: cathepsin B; type: in vitro ADME; settings: 50 pmol, 30 min, 37° C., pH 5
Experimental: 50 pmol aPPR, 5.2R, 5.3R, ZF5.3R, TatR (SEQ ID NO:67), or Arg8R (SEQ ID NO:68) were incubated with 5 pg cathepsin B, D, or L for 30 min at 37° C. in 10 μL of 20 mM sodium phosphate buffer (pH 5) containing 150 mM NaCl. At the end of the incubation, the reaction was stopped by adding 40 μL of a solution containing a 84:15:1 ratio of water:EtOH:TFA before analysis by HPLC.

HeLa cells [4] = experiment: HPLC analysis of cytosolic extracts prepared with streptolysin O; type: cell-based; settings: HeLa cells treated with rhodamine labeled molecule
Experimental: To generate cytosolic extracts, HeLa cells were treated with streptolysin O (SLO), a well characterized bacterial toxin that creates pores in the plasma membranes of target cells (Walev et al., 2002, FASEB 16:237-239). […] Moreover, when the toxin is added to cultured cells at 4° C. and washed with PBS before raising the temperature to 37° C., pores are created only in the plasma membrane and the release of ER, golgi, or endolysosomal contents are avoided (Androlewicz et al., 1993, Proc Natl Acad Sci USA 90:9130-9134).
First, selective release of the cytoplasmic contents of HeLa cells using the published procedures was verified. HeLa cells were treated with 20 μg/mL SLO in PBS containing 5 mM DTT (20 min, 4° C.), washed (three PBS washes, 150 μL each), resuspended in PBS, and incubated at 37° C. for 15 min, after which 1.5 μM propidium iodide (PI), a marker of permeabilized cell membranes, was added.

HeLa cells [5] = experiment: Effects of endocytosis inhibitors on cell uptake, confocal microscopy; type: cell-based; settings: 1 μM rhodamine labeled, 30 min, 37° C.
Experimental: HeLa cells grown for 24 h in glass bottom plates were incubated with HKR buffer, or HKR buffer containing 80 μM dynasore, 50 μM N-ethyl-isopropyl-amiloride, or 5 mM methyl-β-cyclodextrin for 30 min at 37° C. prior to the addition of 1 μM rhodamine-labeled miniature protein or peptide (Tat (SEQ ID NO:67) and Arg8 (SEQ ID NO:68)). The cells were washed twice with DMEM, the nuclei labeled with Hoescht, and images acquired as described above for colocalization experiments.

Compound: C[C@@H]1C[C@H]2[C@@H]3CCC4=CC(=O)C=C[C@]4(C)[C@@]3(F)[C@@H](O)C[C@]2(C)[C@@]1(O)C(=O)CO [Dex, dexamethasone]
TR (GR-mCherry), Rab5Q79L-GFP expressing cells ([1]; Rab5Q79L-GFP): 2.45±0.21
TR (GR-mCherry), Rab5-GFP expressing cells ([1]; wild-type Rab5-GFP): 2.24±0.15
reduction of the increase in TR by MβCD ([2]; 5 mM MβCD, 1 μM): 53%

Compound: GRKKRRQRRRPPQY [Tat]
% in cytosol (Figure 15): 0.93%
[molecule] in cytosol (Figure 15): 4.63 nM

pEC50 (U2OS(GIGI) cells): 6.36
Compound: K^DexGPSQPTYPGDDAPVEDLIRFYNDLQQYLNVVTRHRY-NH2 (K(dexamethasone)GPSQPTYPGDDAPVEDLIRFYNDLQQYLNVVTRHRY-NH2) [aPPDex]
TR (GR-mCherry), cells expressing Rab5Q79L-GFP or Rab5-GFP [1]: 1.25±0.04
effect of bafilomycin on TR ([2]; 200 nM bafilomycin pretreatment 1 h, then 1 μM): did not alter the effect
translocation ratio (TR) ([2]; 1 μM, 30 min): 1.41±0.09
effect of EIPA on TR ([2]; 50 μM EIPA pretreatment 30 min, then 1 μM, 30 min): None of the endocytosis inhibitors altered the TR
effect of dynasore on TR ([2]; 80 μM dynasore pretreatment 30 min, then 1 μM, 30 min): None of the endocytosis inhibitors altered the TR
effect of methyl-β-cyclodextrin (MβCD) on TR ([2]; 5 mM MβCD pretreatment 30 min, then 1 μM, 30 min): None of the endocytosis inhibitors altered the TR

pEC50 (U2OS(GIGI) cells): 6.99
Compound: K^DexWYSCNVCGKAFVLSAHLNQHLAVHTQAT-NH2 (K(dexamethasone)WYSCNVCGKAFVLSAHLNQHLAVHTQAT-NH2; cysteine pairing not given here) [ZFDex]
translocation ratio (TR) ([2]; 1 μM, 30 min): 1.4±0.05

Compound: K^RhodGPSQPTYPGDDAPVEDLIRFYRDLRRYLNVVTRHRY-NH2 (K(rhodamine)GPSQPTYPGDDAPVEDLIRFYRDLRRYLNVVTRHRY-NH2; reading uncertain; also: printed as K^RhodGPSQPTYPGDDAPVEDLIRFYRDLRRYLNVVTRHRY-NH2) [4.3R]
intracellular red fluorescent signal (HeLa cells [3]): red fluorescent puncta throughout the cytosol

Compound: K^RhodGPSQPTYPGDDAPVRDLIRFYRDLQRYLNVVTRHRY-NH2 (K(rhodamine)GPSQPTYPGDDAPVRDLIRFYRDLQRYLNVVTRHRY-NH2; reading uncertain; also: printed as K^RhodGPSQPTYPGDDAPVRDLIRFYRDLQRYLNVVTRHRY-NH2) [4.2R]
intracellular red fluorescent signal (HeLa cells [3]): red fluorescent puncta throughout the cytosol

Compound: K^RhodGPSQPTYPGDDAPVRDLIRFYRDLQRYLRVVTRHRY-NH2 (K(Rhod)GPSQPTYPGDDAPVRDLIRFYRDLQRYLRVVTRHRY-NH2; reading uncertain; also: printed as KRhodGPSQPTYPGDDAPVRDLIRFYRDLQRYLRVVTRHRY-NH2) [5.2R]
degradation by cathepsin B (HPLC) (cathepsin B): several additional small peaks
intracellular red fluorescent signal (HeLa cells [3]): red fluorescent puncta throughout the cytosol

Compound: K^RhodRRRRRRRR-NH2 (K(Rhod)RRRRRRRR-NH2; reading uncertain; also: printed as K^RhodRRRRRRRR-NH2) [Arg8R]
degradation by cathepsin B (HPLC) (cathepsin B): little or no degradation
material found in SLO cytoplasmic extracts (HPLC) (HeLa cells [4]): retention times distinct from the starting material; also recorded: little or no material with the same retention time as the starting material
effect of EIPA on uptake (HeLa cells [5]; 50 μM EIPA): dramatically reduced the uptake
effect of dynasore on uptake (HeLa cells [5]; 80 μM dynasore): completely blocked the uptake
effect of MβCD on uptake (HeLa cells [5]; 5 mM MβCD): increased
intracellular red fluorescent signal (HeLa cells [3]): red fluorescent puncta throughout the cytosol

Compound: RRRRRRRR [Arg8]
% in cytosol (Figure 15): 2.8%
[molecule] in cytosol (Figure 15): 14.0 nM

Compound: WYSCNVCGKAFVLSRHLNRHLRVHRRAT [ZF5.3]
% in cytosol (Figure 15): 59%
[molecule] in cytosol (Figure 15): 249 nM
